A short description of data set [1]: Kinetic solubility in aqueous media C.3.a (nephelometer). The format is physicochemical. The following applies: aqueous buffer, kinetic from dmso stock; phosphate citrate buffer pH 7.4, turbidity; read-out: Kinetic solubility score (C.3.a). As to the method: The solubility of a compound measures the ability of a compound to stay in solution. In a first method the ability of a compound to stay in aqueous solution upon dilution (see example C.3.a) is measured. DMSO-stock solutions are diluted with a single aqueous buffer solvent in 3 consecutive steps. For every dilution turbidity is measured with a nephelometer.
In the first dilution step, 10 μl of a concentrated stock-solution of the active compound, solubilized in DMSO (5 mM), was added to 100 μl phosphate citrate buffer pH 7.4 and mixed. In the second dilution step, an aliquot (20 μl) of the first dilution step was further dispensed in 100 μl phosphate citrate buffer pH 7.4 and mixed. Finally, in the third dilution step, a sample (20 μl) of the second dilution step was further diluted in 100 μl phosphate citrate buffer pH 7.4 and mixed. All dilutions were performed in 96-well plates. Immediately after the last dilution step the turbidity of the three consecutive dilution steps were measured with a nephelometer. Dilution was done in triplicate for each compound to exclude occasional errors. Based on the turbidity measurements a ranking is performed into 3 classes. Compounds with high solubility obtained a score of 3 and for this compounds the first dilution is clear. Compounds with medium solubility obtained a score of 2. […]

Data set [2] is described as follows: Metabolic stability with rat hepatocytes cell culture C.5.b. The format is in vitro ADME. The note with it: male, Sprague Dowley, rat hepatocyte cell cultures, read-out: in vitro half-life. From the text: Metabolism of drugs means that a lipid-soluble xenobiotic or endobiotic compound is enzymatically transformed into (a) polar, water-soluble, and excretable metabolite(s). The major organ for drug metabolism is the liver. […] However, some metabolites may have enhanced activity or toxic effects. Thus drug metabolism may include both “detoxication” and “toxication” processes. One of the major enzyme systems that determine the organism's capability of dealing with drugs and chemicals is represented by the cytochrome P450 monooxygenases, which are NADPH dependent enzymes. Metabolic stability of compounds can be determined in vitro with the use of subcellular human tissue (see example C.5.a.). Here metabolic stability of the compounds is expressed as % of drug metabolised after 15 minutes incubation of these compounds with microsomes. Quantitation of the compounds was determined by LC-MS analysis. Metabolic stability of compounds can also be determined by calculating the half live of compounds in rat hepatocyte cells (see example C.5.b.).
Rat hepatocytes were isolated from male Sprague Dowley rats. The compounds were dissolved to a 5 mM stock solution in 100% DMSO and incubated at a final concentration of 5 μM for 0, 15, 30, 60 and 120 min with rat hepatocyte cell cultures (0.5 million viable cells/0.5 ml) using 24-well plates.
Samples were prepared for LC-MS by addition of two volumes of DMSO. The samples were thoroughly shaken and subsequently centrifuged at 900 g for 10 min (room temperature). All experiments were performed in triplicate. Of the resulting supernatant 50 μl was analysed by LC-MS.
For LC-MS, elution of samples was performed on a Hypersil BDS C18 column (50×4.6 mm, 5 μm, Thermohypersil, UK). […]
Total injection volume of samples was 50 μL. […] The mass spectrometer was operated in positive ion mode in SIM adjusted to the mass of M+H with a scan width of 1 Da for quantification purposes. […] The metabolic stability of compounds in rat hepatocytes was expressed as in vitro half-lives. […]

Broadly, the kinetic solubility is solubility judged after dilution from a stock solution rather than from solid. As usually defined, the half-life is the time in which the quantity being followed falls by half.

`Cn1c(CNCC2CCN(c3ncc(C(=O)NO)cn3)CC2)nc2ccccc21` [Compound 3]: the kinetic solubility in data set [1] is above 455 µM. Further, the half-life at 5 μM in data set [2] was 30 to 55 min.
